Source: patent US20130178448A1, “Treatment of Respiratory Disorders” (priority 2010, published 2013)

Columns and labels:
[1] = rat, in vivo, 4 h
Description: Vehicle and test compounds (Groups 1-7) were each administered orally (PO) to fasted rats. Each group included five animals. […] The animals were sacrificed four hours after dosing and gastric mucosal lesions were scored. A score of 50 percent or more (≧50%) relative to the aspirin-treated group (150 mg/kg PO, set as 100%) is considered positive in gastric irritation and is shown in parenthesis; and
Seven groups of rats, each group consisting of five animals, were each administered orally (PO) with test formulations and control compounds. […] Group 3 animals were treated with 150 mg/kg aspirin, and Group 4 animals were treated with 100 mg/kg of ibuprofen dissolved in 1% CMC vehicle.
The animals were sacrificed four hours after dosing with the test compound (or control vehicle) and gastric mucosal lesions were then scored according to the following criteria: 0=no lesions, 1=hyperemia, 2=one or two slight lesions, 3=more than two slight lesions or severe lesions, 4=very severe lesions (Herrerias et al., Dig. Dis. Sci., 2003). A score of 50 percent or more (≧50%) relative to the aspirin-treated group (150 mg/kg PO, set as 100%) was considered positive in gastric irritation and is shown in parenthesis in the table of FIG. 5.

[2] = test system: Influenza A/PR/8/34 (H1N1 virus); assay: In vivo mouse viral challenge (weight loss and survival of influenza-challenged mice); set-up: species or system mice (C57BLK/6); conditions: intraperitoneal, 335.6 μg/animal in 10 μl DMSO
Description: Five groups (n=10) of C57BLK/6 female mice (6-7 weeks old), were divided into five experimental groups containing ten animals each. On day 1, animals received an intranasal lethal dose (50 μl total, 25 μl nostril) of Influenza A/PR/8/34 under halothane induced anaesthesia.
The animals were weighed, and monitored for signs of infection daily up to day 6 when all animals were culled. FIGS. 1-4 represent the average weight loss per group and animal survival.
Using standard techniques as described above, mice were infected with a H1N1 virus which was allowed to become established in each of the subjects. Each test mouse was then treated with ibuprofen, either intraperitoneally (in DMSO) or orally (in the lipid/ethanol formulation, BC1054). The weight loss of both treated and untreated mice was then determined.

Row | SMILES | ulceration score relative to aspirin (150 mg/kg PO, set as 100%) [1] | percentage survival rate compared with control mice ([2]; single dose day 3, especially after day four, FIG. 2) | higher reduction in weight loss than in the control mice ([2]; single dose day 3 post-challenge, vs vehicle control, FIG. 1)
1 | CC(=O)Oc1ccccc1C(=O)O [Aspirin] | 100% | – | –
2 | CC(C)Cc1ccc(C(C)C(=O)O)cc1 (stereo not drawn) [ibuprofen] | – | lower percentage survival rate than the control mice | ~30%
